# Measured values reported in ChEMBL document CHEMBL4330135, “Discovery of 2-phenylthiazole-4-carboxylic acid, a novel and potent scaffold as xanthine oxidase inhibitors” (Bioorg Med Chem Lett, 2019).
# The source made the active and inactive calls. No cut-off for these calls is given here.
# Key:
# [1] = biological target: T1, Xanthine dehydrogenase/oxidase (Bos taurus, UniProt P80457); experiment: Inhibition of bovine milk xanthine oxidase at 10 uM using xanthine as substrate preincubated for 3 mins followed by substrate addition and measured at 1 min for 10 mins relative to control; details: cattle
# T1 sequence (P80457 whole entry): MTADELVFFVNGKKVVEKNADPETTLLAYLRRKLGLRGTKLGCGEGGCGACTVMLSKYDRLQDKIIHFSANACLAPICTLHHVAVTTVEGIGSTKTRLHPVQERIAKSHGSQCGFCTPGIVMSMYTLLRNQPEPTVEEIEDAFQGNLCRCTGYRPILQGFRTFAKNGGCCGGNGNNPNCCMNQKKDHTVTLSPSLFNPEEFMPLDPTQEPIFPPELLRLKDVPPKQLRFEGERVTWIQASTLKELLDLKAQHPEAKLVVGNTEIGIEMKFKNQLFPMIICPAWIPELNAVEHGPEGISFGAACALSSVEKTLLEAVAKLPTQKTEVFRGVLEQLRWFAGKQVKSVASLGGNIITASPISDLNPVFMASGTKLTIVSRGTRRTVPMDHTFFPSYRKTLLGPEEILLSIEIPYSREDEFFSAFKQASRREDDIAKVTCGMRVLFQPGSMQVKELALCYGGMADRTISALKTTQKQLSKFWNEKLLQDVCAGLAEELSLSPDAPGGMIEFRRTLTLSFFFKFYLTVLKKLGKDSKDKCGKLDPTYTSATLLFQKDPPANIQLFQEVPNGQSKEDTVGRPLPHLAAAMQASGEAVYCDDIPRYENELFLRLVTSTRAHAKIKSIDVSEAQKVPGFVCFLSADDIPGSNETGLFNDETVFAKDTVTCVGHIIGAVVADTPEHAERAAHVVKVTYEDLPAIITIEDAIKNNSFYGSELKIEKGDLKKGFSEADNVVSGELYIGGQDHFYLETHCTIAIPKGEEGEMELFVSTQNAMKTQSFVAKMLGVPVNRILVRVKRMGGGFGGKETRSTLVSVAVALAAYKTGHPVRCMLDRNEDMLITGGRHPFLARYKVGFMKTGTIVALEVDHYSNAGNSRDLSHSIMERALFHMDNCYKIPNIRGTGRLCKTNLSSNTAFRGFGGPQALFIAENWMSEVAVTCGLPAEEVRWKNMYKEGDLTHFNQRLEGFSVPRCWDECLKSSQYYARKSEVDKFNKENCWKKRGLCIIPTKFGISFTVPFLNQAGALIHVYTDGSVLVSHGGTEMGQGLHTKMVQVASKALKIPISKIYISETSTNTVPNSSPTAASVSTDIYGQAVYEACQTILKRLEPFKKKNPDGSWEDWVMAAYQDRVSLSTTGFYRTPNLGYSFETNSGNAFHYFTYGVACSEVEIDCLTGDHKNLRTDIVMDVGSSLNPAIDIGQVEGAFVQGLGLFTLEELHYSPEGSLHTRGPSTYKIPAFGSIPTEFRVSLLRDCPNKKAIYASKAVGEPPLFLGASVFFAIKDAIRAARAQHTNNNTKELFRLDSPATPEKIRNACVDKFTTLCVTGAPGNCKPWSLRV
# [2] = tested on: Mus musculus; experiment: Hypouricemic effect in ICR mouse model of potassium oxonate and hypoxanthine-induced acute hyperuricemia assessed as reduction in serum uric acids level at 5 mg/kg, po dosed 1 hr after potassium oxonate and hypoxanthine challenge and measured after 1 hr; assay type: functional, organism-based
# [3] = biological target: T1, Xanthine dehydrogenase/oxidase; experiment: Inhibition of bovine milk xanthine oxidase using xanthine as substrate preincubated for 3 mins followed by substrate addition and measured at 1 min for 10 mins
# [4] = tested on: Mus musculus; experiment: Hypouricemic effect in ICR mouse model of potassium oxonate and hypoxanthine-induced acute hyperuricemia assessed as reduction in serum uric acids level at 20 mg/kg, po dosed 1 hr after potassium oxonate and hypoxanthine challenge and measured after 1 hr; assay type: functional, organism-based
SMILES,inhibition at 10 µM [1] [%],further results
Cc1nc(-c2ccc(OCC(C)C)c(C#N)c2)sc1C(=O)O [FEBUXOSTAT],98.5,Activity [2]: Active
CC(C)COc1ccc(-c2nc(C(=O)O)cs2)cc1[N+](=O)[O-],,IC50 [3]: 48.6 nM; Activity [4]: Active
Cc1nc(-c2ccccc2)oc1C(=O)O,12.5,
Cc1nc(-c2ccccc2)sc1C(=O)O,37.6,
O=C(O)c1csc(-c2ccccc2)n1,32.8,
Cc1nc(-c2ccc(OCC(C)C)c([N+](=O)[O-])c2)sc1C(=O)O,,IC50 [3]: 33.4 nM; Activity [4]: Active
Cc1cc(C(=O)O)nn1-c1ccccc1,13.9,

# Continued, in another order:
inhibition at 10 µM [1] [%],SMILES,further results
4.2,O=C(O)c1cc(-c2ccccc2)on1,
18.6,O=C(O)c1nc(-c2ccccc2)cs1,
